Experimental findings from patent publication US20190255144A1, “SPECIFIC OLIGOPEPTIDES AS ANTI-ANGIOGENIC DRUGS” (NEURONAX, priority 2014, published 2019) are described below.

Where “and” joins values, the source holds several entries; their conditions need not be identical. Equal values may be shown once. Entries after “also recorded” stand apart in the source; their conditions may differ.

Data set [1] relates to tumors from subcutaneous heterotopic grafts. Kind of data set: Tumors from subcutaneous heterotopic grafts in nude mouse: Ki67, CD31, tumor volume. The data set is classed as in vivo. As to conditions: for Tumor Volume D0: day 0 after injection of cancer cells, treatment in hydrogel injected on 21st day; for Tumor Volume D5: day 5 after injection of cancer cells; for Tumor Volume D5 / Tumor Volume D12 / Tumor Volume D17 / Tumor Volume D19: before treatment (21st day); for Tumor Volume D12: day 12 after injection of cancer cells; for Tumor Volume D17: day 17 after injection of cancer cells; for Tumor Volume D19: day 19 after injection of cancer cells; for Tumor Volume D21: day 21 after injection of cancer cells, day of treatment injection in hydrogel; for Tumor Volume D23: day 23 after injection of cancer cells, 48 hours after treatment in hydrogel; for Ki67 labeling quantification, Mean Center / CD31 labeling quantification, Center: tumor center. From the text:
FIGS. 7A to 7E show the results of the analysis of the activity of the oligopeptide according to the invention on the proliferation, the vascularization, and the tumor growth in nude mice: • The images A, B and C of FIG. 7A show the immunolabeling of Ki-67 on tumor sections treated by H2O, TSP-1 or the oligopeptide according to the invention respectively. • The images D, E and F of FIG. 7A are magnifications (2×) of FIGS. A, B and C. • The images G, H and I of FIG. 7A represent the immunolabeling of CD31 on tumor sections that are treated by H2O, TSP-1 or the oligopeptide according to the invention respectively (the bars of the scale correspond to 500 μm). • The images J, K and L of FIG. 7A are magnifications (2×) of the images G, H and I.
The Ki-67 labeling was quantified under the various conditions using imageJ software, and comparisons between the center and the edge of tumors and between the conditions were carried out (FIG. 7B) by analysis of variances (ANOVA test). A value of p<0.05 is considered to be significant. * p<0.05 that is compared to the center of the same tumors; $ p<0.05 and $$ p<0.01 that is compared to the control. • The CD31 labeling was quantified under the various conditions using image J software, and comparisons between the center and the edge of tumors and between the conditions were carried out (FIG. 7C) by analysis of variances (ANOVA test). […] The injections of the treatments (hydrogel by itself, TSP-1 and the oligopeptide according to the invention (NX) were carried out on the 21st day (black arrow)). The comparison of the tumor sizes in comparison to the controls was carried out by analysis of variances (ANOVA test). ** p<0.01; *** p<0.001.
The experimentation on the mouse confirms the results that are obtained with the CAM model. In this case, the tumors were obtained from subcutaneous heterotopic grafts in the area of the leg of a nude mouse (FIGS. 7B, 7C and 7E).
Tables 6, 7 and 8: These tables correspond to the raw values that are obtained during various analyses conducted on the tumors that are treated in vivo. Analysis of the proliferation (Ki67 labeling quantification) (F), analysis of the vascularization (CD31 labeling quantification) (G) and analysis of the tumor growth as a function of time (measurement of the tumor volume) (H). “con,” “CTRL” and “hydrogel” treatments are control conditions, “TSP” and “TSP1” are the treatments with thrombospondin 1 (TSP-1), and NX is the treatment with the peptide according to the invention

Another data set can be described thus: Toxicity on injection. The data set is classed as in vivo. As to conditions: injections of 20 mg/kg.
In data set [2] the test system is chorioallantoic membrane (CAM) vascularization. Kind of data set: Treatments on the chorioallantoic membrane (CAM), fluorescein angiography. Type of data set: in vivo, chicken embryo. As to conditions: impregnated sponge on CAM at ED9; oligopeptide 250 μg/mL (9 hours), VEGF 10 ng/mL; listed as oligopeptide according to the invention. The source says:
In fact, TSP-1 is known for inducing the apoptosis of endothelial cells. […] It is also a decisive process under certain physiological and pathological conditions (cancers in particular). This mechanism is controlled by numerous factors having either an inhibitor potential or an activator. So as to evaluate the main properties of these in vivo factors, the most common model is the CAM (chorioallantoic membrane) model from the chicken embryo (Ribatti et al., 2000). It offers the advantage of making it possible to test the pro- or anti-angiogenic factors during an active angiogenesis phase between the embryonic stages 4j and 10j. The major effects of the various molecules can therefore be evaluated in vivo. The model of the CAM can also be used in experimental tumor development. The grafting of human cancer cells onto the surface of the CAM is carried out in the 9-day embryonic stage. Three days after the grafting at ED12, the formation of a tumor is visible at the surface of the CAM. The latter can be treated topically during the 48 hours that follow this stage, and the tumors are sampled at ED14j. The fertilized eggs (Haas Poultry Farm, Strasbourg, France) are kept for 24 hours at 18° C. before the incubation is started up. […] The embryonic stages are determined from tables of Hamburger and Hamilton (H and H, 1951). […]

In the next data set the test system is HBMECs. Kind of data set: Migration of endothelial cells. Type of data set: cell-based.
Another data set deals with HUVECs or HBMECs. Kind of data set: Proliferation of endothelial cells. The data set is classed as cell-based. As to conditions: in vitro.
Where [3] appears, read: nude mouse tumor sections, tumor edge.

Consider “thrombospondin 1 [TSP, reference compound]”, for which, in data set [1] (nude mice), the “Tumor Volume D0” value came out at 0 mm^3, the “Tumor Volume D5” value is on record as 33.55 mm^3, the “Tumor Volume D12” value is listed as 29.93 mm^3 and the “Tumor Volume D17” value amounted to 49.88 mm^3. Besides, in data set [1] (nude mice), the “Tumor Volume D19” value is 81.07 mm^3, the “Tumor Volume D21” value is recorded as 112.5 mm^3 and the “Tumor Volume D23” value is 101.9 mm^3. Moreover, in data set [1] (nude mouse tumor sections), the “Ki67 labeling quantification, Mean Center” value came out at 200.3. For the same substance, the “CD31 labeling quantification, Center” value in data set [1] (nude mouse tumor sections, raw values, listed as TSP1) is 66 and 53 and 63 and 56. In addition, the “Ki67 labeling quantification, Mean Edge” value in data set [1] (setting [3]) turned out to be 228.2. The “CD31 labeling quantification, Edge” value in data set [1] (nude mouse tumor sections, tumor edge, raw values, listed as TSP1) is 53 and 42 and 39 and 45.

Take “—W—S-G-W—S—S—C—S—R—S—C-G- (WSGWSSCSRSCG; Oligopeptide derived from SCO-Spondin) [NX]”: the Toxicity result in “Toxicity on injection” is listed as “no toxicity”. Besides, in data set [2], the “Vascularization / microvascularization of the CAM (in words)” value was “inhibition of vascularization; also recorded: comparable to that of the Bevacizumab”. Further, the “Cell proliferation, Ki-67 labeling (in words)” value in data set [1] (nude mice tumors) is reported as “decrease in the Ki-67 labeling”. Also, the “CD31 labeling (in words)” value in data set [1] (nude mice tumors, periphery, compared with control) is “reduction in the CD31 labeling on the periphery”. Further, in data set [1] (nude mice, 48 hours after the treatment), the “Tumor volume change (in words)” value is on record as “decrease in volume”. In addition, in data set [1] (nude mice), the “Tumor Volume D0” value was determined as 0 mm^3, the “Tumor Volume D5” value is recorded as 46.46 mm^3, the “Tumor Volume D12” value was found to be 39.04 mm^3 and the “Tumor Volume D17” value is 70.6 mm^3. For the same substance, in data set [1] (nude mice), the “Tumor Volume D19” value came to 78.82 mm^3, the “Tumor Volume D21” value came to 135.6 mm^3 and the “Tumor Volume D23” value was determined as 68.03 mm^3. Besides, in data set [1] (nude mouse tumor sections), the “Ki67 labeling quantification, Mean Center” value came to 181.7. Further, the “CD31 labeling quantification, Center” value in data set [1] (nude mouse tumor sections, raw values) was 26 and 40 and 28 and 38. Also, in data set [1] (setting [3]), the “Ki67 labeling quantification, Mean Edge” value was 49.75. Moreover, the “Migration of the HBMECs induced by glioblastoma tumor cells” value with HBMECs (brought into contact with the U87-MG or HBMECs) is “inhibits”. The “Migration in the presence of an angiogenic factor” value in the data set on HBMECs (in the presence of VEGF or bFGF) was “promotes the migration”. In the data set with HUVECs or HBMECs, the “Proliferation of HUVECs or HBMECs” value is given as “does not modulate the proliferation”.
